Assay results: US4209439A, “Stabilization of vinyl resins” (priority 1977, dated 1980)
Where “and” joins values, the source holds several entries; their conditions need not be identical. Identical values can stand only once.

Assays:
Format in all cases: physicochemical
[1] = sublimation at 160° C. for 6 hours under nitrogen; settings: for % of sublimed product: 160° C., 6 hours, nitrogen; for sublimation: of the quantity of product being used
Description: A test sample of about 130 mg of the product to be investigated is introduced into a 100 cc beaker. The latter is placed in a 250 cc reactor. The temperature is kept at 160° C. by means of a thermostatically controlled oil bath for 6 hours, the atmosphere of the reactor being inert (nitrogen) in order to avoid the oxidation of the 1,4-dihydropyridine into pyridine, which is more sublimable.
For each dihydropyridine derivative which is investigated, the result is expressed as a percentage of sublimed product relatively to the quantity being used.

[2] = migration of stabiliser from PVC bottles into water at 50° C.; settings: water 50° C.
Description: 2.2--Study of the migration
The migration or the extractability of the stabiliser from the PVC compound under the effect of various liquids (and particularly water) stored in a plastic container is of essential importance for the use of these stabilisers in the field of food packagings.
(§1) The technique as regards extraction was the following: using the formula which is given below, a batch of bottles (volume 1 liter, diameter 70 mm, height.perspectiveto.230 mm) was prepared, the said bottles being filled with a liquid simulating the foods. […] The migration of the stabiliser was judged by dosage of the pyridine present in the extractum, using the dosage method which is later described. This pyridine obviously represents the oxidised form of the extracted 1,4-dihydropyridine.
The investigation was particularly developed for water at 50° C. over a period of 2 months, because it represents the important problem regarding the packaging of mineral waters.
Formula for the manufacture of bottles
The S L 2016 is a solution of zinc 2-ethyl hexanoate in a mixture of aromatic hydrocarbons boiling from 158° to 184° C.
(§2) The stabilisers are measured out in the form of their oxidation product (pyridine).
(§3) The oxidation is made quantitative by adding a few drops of iodine to the solution. The latter is then extracted with chloroform and the chloroform is evaporated to a small residual volume. The solution obtained is then subjected to thin-film chromatography, by comparison with solutions of known concentration of the desired pyridines.
(§4) The sensitivity threshold of this technique is 5 μg/liter.

[3] = migration of stabiliser from PVC into solutions or solvents simulating foods at 50° C.
Description: as §1, §2, §3, §4
For justifying the possibility of using the dihydropyridines (I) having a radical R comprising from 9 to 22 carbon atoms in applications concerned with food packaging, other than those applications relating to mineral waters, the extractability of the dihydropyridines by several solutions or solvents having the following composition, by weight, was investigated:
(a) water-sodium chloride: 97-3
(b) water-saccharose: 90-10
(c) water-sodium chloride-acetic acid: 98.5-0.5-1
(d) water-citric acid (solution at pH=5): 98-2
(e) water-acetic acid: 97-3
(f) water-acetic acid: 90-10
(h) water-acetic acid: 50-50

[4] = polarographic study of the oxidation potential (Example 30); settings: acetonitrile, lithium perchlorate; calomel electrode; in V (unit assumed)
From the text: 261. Polarographic study of the oxidation potential […]
reference electrode: a calomel electrode which contains, as junction liquid, a saturated solution of anhydrous lithium perchlorate working electrode: rotating electrode of vitreous carbon (2500 r.p.m.) counter-electrode: platinum. acetonitrile, having a water content smaller than 0.1% and not presenting any polarographic waves between -2.5 volts and +2.5 volts.
0.1 M solution of lithium perchlorate in acetonitrile, treated and preserved on a molecular screen of 4 A. […]
exploration amplitude: 0 to 2 V exploration speed: 10 mV/sec.

[5] = polarographic oxidation potential (Example 31); settings: 0.5 m.mole/liter; methanol/acetic acid; 35° C.
Description: platinum counter-electrode and calomel electrode with filling by a saturated aqueous solution of lithium chloride.
The measurements were carried out in the following solvent:
90 parts of an 0.1 M solution of lithium perchlorate in methanol, 10 parts of a 0.1 M solution of perchloric acid in acetic acid. square voltage superimposed with constant pulses of +10 millivolts, initial potential: 500 millivolts, scanning voltage: 1000 millivolts in the anode direction, oxidation at the vitreous carbon electrode (speed of rotation: 2000 r.p.m.)

SMILES	% of sublimed product [1]	Migration ([3]; H2O/NaCl (97:3), 0.3, 1 month)	Migration ([3]; H2O/NaCl (97:3), 0.3, 2 months)	Migration ([2]; 0.15 pct, 1 month)	Migration ([2]; 0.15 pct, 2 months)	Migration ([2]; 0.15 pct, 10 days)	Migration ([2]; 0.15 pct, 20 days)	Migration ([2]; 0.30 pct, 1 month)	Migration ([2]; 0.30 pct, 2 months)	Migration ([2]; 0.30 pct, 10 days)	Migration ([2]; 0.30 pct, 20 days)	also measured
c1ccc(-c2cc3ccccc3[nH]2)cc1 [2-phenyl indole, reference compound]	62%	90 µg/L	140 µg/L	–	–	–	–	–	–	–	–	sublimation [1]: 62%; Migration ([2]; 0.30 pct, 1 month, listed as Control): 100 µg/L and 110 µg/L and 120 µg/L; Migration ([2]; 0.30 pct, 2 months, listed as Control): 100 µg/L and 110 µg/L and 130 µg/L; Migration ([2]; 0.30 pct, 10 days, listed as Control): 75 µg/L and 70 µg/L and 80 µg/L; Migration ([2]; 0.30 pct, 20 days, listed as Control): 90 µg/L and 100 µg/L
COc1ccc(O)cc1 [4-Methoxy phenol]	–	–	–	–	–	–	–	–	–	–	–	Oxidation potential [4]: 0.89 ± 0.01
Cc1cc(C(C)(C)C)c(O)c(C(C)(C)C)c1 [BHT, Di-tert.-2,6-butyl-4-methyl phenol, reference compound]	–	–	–	–	–	–	–	–	–	–	–	Oxidation potential [5]: 1163 millivolts; Oxidation potential [4]: 1.11 ± 0.02
Oc1ccc(O)cc1 [Hydroquinone]	–	–	–	–	–	–	–	–	–	–	–	Oxidation potential [4]: 0.83 ± 0.01
CCOC(=O)C1=C(C)NC(C)=C(C(=O)OCC)C1 [L.28501, 2,6-Dimethyl-3,5-dicarboethoxy-1,4-dihydropyridine]	82.9%	120 µg/L	150 µg/L	100 µg/L	100 µg/L	20 µg/L	50 µg/L	150 µg/L	150 µg/L	90 µg/L	120 µg/L	Oxidation potential [4]: 0.73 ± 0.01
CCCCCCCCOC(=O)C1=C(C)NC(C)=C(C(=O)OCCCCCCCC)C1 [L.28502]	7.2%	–	–	–	–	–	–	–	–	–	–	sublimation [1]: 7%
CC1=C(C(=O)OC(C)C)CC(C(=O)OC(C)C)=C(C)N1 [L.28506]	98.1%	–	–	–	–	–	–	–	–	–	–	–
CCCCCCCCCCCCOC(=O)C1=C(C)NC(C)=C(C(=O)OCCCCCCCCCCCC)C1 [L.28507, 2,6-Dimethyl-3,5-dicarbododecyloxy-1,4-dihydropyridine]	1.7%	< 5 µg/L	< 5 µg/L	< 5 µg/L	< 5 µg/L	< 5 µg/L	< 5 µg/L	< 5 µg/L	< 5 µg/L	< 5 µg/L	< 5 µg/L	Oxidation potential [5]: 783 millivolts; Migration ([3]; Heptane, 0.3 pcr, after 36 h): 120 µg/L; Migration ([3]; Heptane, 0.3 pcr, after 84 h): 150 µg/L; Migration ([3]; Water/C2H5OH (50:50), 0.3, 1 month): 50 µg/L; Migration ([3]; Water/C2H5OH (85:15), 0.3, 1 month): < 5 µg/L; Migration ([3]; Water/C2H5OH (85:15), 0.3, 2 months): < 5 µg/L; Migration ([3]; Water/CH3COOH (50:50), 0.3, 1 month): 25 µg/L; Migration ([3]; Water/CH3COOH (90:10), 0.3, 1 month): < 5 µg/L; Migration ([3]; Water/CH3COOH (90:10), 0.3, 2 months): < 5 µg/L; Migration ([3]; Water/CH3COOH (97:3), 0.3, 1 month): < 5 µg/L; Migration ([3]; Water/CH3COOH (97:3), 0.3, 2 months): < 5 µg/L; Migration ([3]; Water/NaCl/CH3COOH (98,5:0,5:1), 0.3, 1 month): < 5 µg/L; Migration ([3]; Water/NaCl/CH3COOH (98,5:0,5:1), 0.3, 2 months): < 5 µg/L; Migration ([3]; Water/Sacchrose (90:10), 0.3, 1 month): < 5 µg/L; Migration ([3]; Water/Sacchrose (90:10), 0.3, 2 months): < 5 µg/L; Migration ([3]; Water/citric acid (98:2), pH 5, 0.3, 1 month): < 5 µg/L; Migration ([3]; Water/citric acid (98:2), pH 5, 0.3, 2 months): < 5 µg/L
CCCOC(=O)C1=C(C)NC(C)=C(C(=O)OCCC)C1 [L.28509]	79.1%	–	–	–	–	–	–	–	–	–	–	–
CCCCOC(=O)C1=C(C)NC(C)=C(C(=O)OCCCC)C1 [L.28552, 2,6-Dimethyl-3,5-dicarbobutoxy-1,4-dihydropyridine]	39.2%	80 µg/L	100 µg/L	90 µg/L	100 µg/L	15 µg/L	40 µg/L	130 µg/L	130 µg/L	80 µg/L	120 µg/L	–
CCCCCCCCCCCCCCOC(=O)C1=C(C)NC(C)=C(C(=O)OCCCCCCCCCCCCCC)C1 [L.28590, 2,6-Dimethyl-3,5-dicarbotetradecyloxy-1,4-dihydropyridine]	0.1%	< 5 µg/L	< 5 µg/L	< 5 µg/L	< 5 µg/L	< 5 µg/L	< 5 µg/L	< 5 µg/L	< 5 µg/L	< 5 µg/L	< 5 µg/L	Oxidation potential [5]: 732 millivolts
CCCCCCCCCCOC(=O)C1=C(C)NC(C)=C(C(=O)OCCCCCCCCCC)C1 [L.28591]	1.7%	–	–	–	–	–	–	–	–	–	–	–
CCCCCCCCCCCCCCCCCCOC(=O)C1=C(C)NC(C)=C(C(=O)OCCCCCCCCCCCCCCCCCC)C1 [L.28599, 2,6-Dimethyl-3,5-dicarbooctadecyloxy-1,4-dihydropyridine]	1.2%	< 5 µg/L	< 5 µg/L	< 5 µg/L	< 5 µg/L	< 5 µg/L	< 5 µg/L	< 5 µg/L	< 5 µg/L	< 5 µg/L	< 5 µg/L	–
CCCCCCCCCCCCCCCCCCCCCCOC(=O)C1=C(C)NC(C)=C(C(=O)OCCCCCCCCCCCCCCCCCCCCCC)C1 [L.28601]	0.4%	–	–	–	–	–	–	–	–	–	–	–
CCCCCCCC/C=C\CCCCCCCCOC(=O)C1=C(C)NC(C)=C(C(=O)OCCCCCCCC/C=C\CCCCCCCC)C1 [L.28602]	–	–	–	–	–	–	–	–	–	–	–	Oxidation potential [5]: 808 millivolts
